Measured values reported in US4020111A, “Propynyloxy alkyl arene insecticides” (priority 1975, dated 1977).

What was measured:
[1] = tested on: polyvalent resistant (CH strain) houseflies; experiment: whole plant or invertebrate; format: in vivo, housefly (CH strain); settings: CH strain
[2] = tested on: IN/WHO strain house flies; experiment: topical application test, percent kill after 24 hours, IN/WHO strain; format: in vivo, house fly (susceptible IN/WHO strain)
Summary of the method: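 Susceptible female IN/WHO house flies, 3–5 days old, CO2-anesthetized, received synergist plus insecticide in acetone (1.0 μL) on the thorax; doses in μg/fly. Flies held 10 per dish, 3–5 dishes/treatment, with skim milk; mortality (percent kill) read at 24 h.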

mice [3] = experiment: extension of Secobarbital sleeping time by synergists; format: in vivo, Swiss albino white male mice; settings: Secobarbital 37 mg/K; for Relative Sleeping Time: treated/control
Summary of the method: (§1)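 Swiss albino male mice (~38 days, 25-30 g) given synergist at 74.0 or 110.0 mg/kg in corn oil 1 h before Secobarbital 37.0 mg/kg or Noludar 110.0 mg/kg in water. Sleeping time measured from drug dosing to righting-reflex recovery; relative sleeping time = treated ÷ drug-only control.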

mice [4] = experiment: extension of Noludar sleeping time by synergists; format: in vivo, Swiss albino white male mice; settings: Noludar 110 mg/K, synergist 110 mg/K; for Relative Sleeping Time: treated/control
Summary of the method: as §1

[5] = Diazinon 5 + synergist 10 μg/fly
[6] = Dimetilan 2 + synergist 4 μg/fly
[7] = GS 13005 1 + synergist 2 μg/fly
[8] = GS 13798 1 + synergist 2 μg/fly
[9] = Pyrethrum 2 + synergist 4 μg/fly
[10] = Diazinon 0.03 + synergist 0.15 μg/fly
[11] = Mobam 0.05 + synergist 0.25 μg/fly
[12] = Mobam 0.10 + synergist 0.50 μg/fly
[13] = Mobam 0.50 μg/fly, synergist/insecticide 5/1
[14] = Mobam 1.0 μg/fly, synergist/insecticide 1/1
[15] = Mobam 1.0 μg/fly, synergist/insecticide 2/1
[16] = Mobam 1.0 μg/fly, synergist/insecticide 5/1
[17] = Mobam 0.20 + synergist 1 μg/fly

## C#CCOCc1ccc(Cl)c(Cl)c1 [II-C]
[1]; [5]
  percent kill after 24 hours: 95%
[1]; [6]
  percent kill after 24 hours: 100%
[1]; [7]
  percent kill after 24 hours: 75%
[1]; [8]
  percent kill after 24 hours: 92%
[1]; [9]
  percent kill after 24 hours: 50%
[2]; [10]
  percent kill after 24 hours: 25%
[2]; [11]
  percent kill after 24 hours: 4%
[2]; [12]
  percent kill after 24 hours: 27%
Mice [3]; synergist 110 mg/K
  Mean Sleeping Time: 33 min
  Relative Sleeping Time: 1.0
Mice [4]
  Mean Sleeping Time: 50 min
  Relative Sleeping Time: 1.3

## C#CCOCc1c(Cl)ccc(Cl)c1Cl [II-E]
[1]; [5]
  percent kill after 24 hours: 65%
[1]; [6]
  percent kill after 24 hours: 100%
[1]; [7]
  percent kill after 24 hours: 100%
[1]; [8]
  percent kill after 24 hours: 100%
[1]; [9]
  percent kill after 24 hours: 78%
[2]; [13]
  percent mortality 24 hours: 100%
[2]; Mobam 1.0 μg/fly, synergist/insecticide 0.5/1
  percent mortality 24 hours: 100%
[2]; [14]
  percent mortality 24 hours: 100%
[2]; [15]
  percent mortality 24 hours: 100%
[2]; [16]
  percent mortality 24 hours: 100%
[2]; [12]
  percent kill after 24 hours: 33%
[2]; [17]
  percent kill after 24 hours: 100%
[2]; synergist alone 1 μg/fly
  percent kill after 24 hours: 0%
Mice [3]; synergist 110 mg/K
  Mean Sleeping Time: 44 min
  Relative Sleeping Time: 1.4
Mice [4]
  Mean Sleeping Time: 45 min
  Relative Sleeping Time: 1.1

## C#CCON=C(C)c1ccc(Cl)cc1 [I-D]
[1]; [6]
  percent kill after 24 hours: 100%
[1]; [7]
  percent kill after 24 hours: 100%
[1]; [8]
  percent kill after 24 hours: 100%
[1]; [9]
  percent kill after 24 hours: 67%
[2]; [12]
  percent kill after 24 hours: 20%
Mice [3]; synergist 74 mg/K
  Mean Sleeping Time: 62 min
  Relative Sleeping Time: 1.9
Mice [3]; synergist 110 mg/K
  Mean Sleeping Time: 56 min
  Relative Sleeping Time: 1.7
Mice [4]
  Mean Sleeping Time: 58 min
  Relative Sleeping Time: 1.5

## C#CCOCc1ccc(Cl)c(Cl)c1Cl [II-D]
[1]; [5]
  percent kill after 24 hours: 60%
[1]; [6]
  percent kill after 24 hours: 100%
[1]; [7]
  percent kill after 24 hours: 95%
[1]; [8]
  percent kill after 24 hours: 100%
[1]; [9]
  percent kill after 24 hours: 30%
[2]; [10]
  percent kill after 24 hours: 40%
[2]; Mobam 0.13 μg/fly, synergist/insecticide 1/1
  percent mortality 24 hours: 17%
[2]; Mobam 0.25 μg/fly, synergist/insecticide 0.5/1
  percent mortality 24 hours: 30%
[2]; Mobam 0.50 μg/fly, synergist/insecticide 1/1
  percent mortality 24 hours: 100%
[2]; [13]
  percent mortality 24 hours: 100%
[2]; [14]
  percent mortality 24 hours: 100%
[2]; [15]
  percent mortality 24 hours: 100%
[2]; [16]
  percent mortality 24 hours: 100%
[2]; [11]
  percent kill after 24 hours: 10%
[2]; [17]
  percent kill after 24 hours: 100%
Mice [3]; synergist 110 mg/K
  Mean Sleeping Time: 60 min
  Relative Sleeping Time: 1.2
Mice [4]
  Mean Sleeping Time: 46 min
  Relative Sleeping Time: 1.0

## C#CCON=C(C)c1ccc2ccccc2c1 [I-F]
[1]; [6]
  percent kill after 24 hours: 100%
[1]; [7]
  percent kill after 24 hours: 100%
[1]; [8]
  percent kill after 24 hours: 95%
[1]; [9]
  percent kill after 24 hours: 35%
[2]; [10]
  percent kill after 24 hours: 24%
[2]; GS 13005 0.10 + synergist 0.50 μg/fly
  percent kill after 24 hours: 45%
[2]; [17]
  percent kill after 24 hours: 47%
Mice [3]; synergist 74 mg/K
  Mean Sleeping Time: 32 min
  Relative Sleeping Time: 1.1
Mice [3]; synergist 110 mg/K
  Mean Sleeping Time: 70 min
  Relative Sleeping Time: 2.2
Mice [4]
  Mean Sleeping Time: 55 min
  Relative Sleeping Time: 1.4

## C#CCOCc1c(Cl)cccc1[N+](=O)[O-] [II-K]
[2]; Bidrin 0.063 μg/fly with five parts synergist
  24 hour percent mortality: 0%
[2]; Pyrolan 0.13 μg/fly with five parts synergist
  24 hour percent mortality: 40%
Mice [3]; synergist 74 mg/K
  Mean Sleeping Time: 48 min
  Relative Sleeping Time: 1.5
Mice [3]; synergist 110 mg/K
  Mean Sleeping Time: 44 min
  Relative Sleeping Time: 2
Mice [4]
  Mean Sleeping Time: 75 min
  Relative Sleeping Time: 2.4

## C#CCON=Cc1ccc(Cl)cc1Cl [I-G]
[1]; [7]
  percent kill after 24 hours: 100%
[1]; [9]
  percent kill after 24 hours: 47%
[2]; Diazinon 0.02 + synergist 0.10 μg/fly
  percent kill after 24 hours: 40%
Mice [3]; synergist 74 mg/K
  Mean Sleeping Time: 27 min
  Relative Sleeping Time: 1.0
Mice [3]; synergist 110 mg/K
  Mean Sleeping Time: 55 min
  Relative Sleeping Time: 1.7
Mice [4]
  Mean Sleeping Time: 48 min
  Relative Sleeping Time: 1.2
